Patent publication US12077503B2, “Substituted cyclic amides and their use as herbicides” (FMC CORPORATION, priority 2015, dated 2024)

Assays:
Assay type in all cases: in vivo
[1] = system: sedge, umbrella (small-flower umbrella sedge, Cyperus difformis); assay: Test B flooded paddy test; settings: Flood, 500 g ai/ha; 0 to 100 scale where 0 is no effect and 100 is complete control; 13 to 15 d
Outline: (§1)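 Response scored visually against untreated controls, 0 = no effect and 100 = complete control, 13–15 d after treatment in the greenhouse. Compounds added to paddy water held 3 cm above soil surface. Treatment given at 2-leaf stage.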

[2] = system: ducksalad (Heteranthera limosa); assay: Test B flooded paddy test; settings: Flood, 500 g ai/ha; 0 to 100 scale where 0 is no effect and 100 is complete control; 13 to 15 d
Outline: as §1

rice (Oryra sativa) = assay: Test B flooded paddy test; settings: Flood, 500 g ai/ha; 0 to 100 scale where 0 is no effect and 100 is complete control; 13 to 15 d
Outline: as §1

[3] = system: barnyardgrass (Echinochloa crus-galli); assay: Test B flooded paddy test; settings: Flood, 500 g ai/ha; 0 to 100 scale where 0 is no effect and 100 is complete control; 13 to 15 d
Outline: as §1

[4] = system: blackgrass (Alopecurus myosuroides); assay: Test A postemergence; settings: postemergence; for Blackgrass plant response rating: 125 g ai/ha, visual injury rating on 0 to 100 scale (0 no effect, 100 complete control), approx. 10 d; for Plant response rating, Blackgrass: 500 g ai/ha, 0 to 100 scale, 0 no effect, 100 complete control
Outline: (§2)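 Treatment is preemergence as a directed soil spray after planting, or postemergence at the one- to two-leaf stage, with test chemical in a non-phytotoxic solvent mixture plus surfactant. Plants stay in the greenhouse about 10 d before visual injury scoring on a 0 to 100 scale versus untreated controls.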

[5] = system: ragweed (common ragweed, Ambrosia elatior); assay: Test A postemergence; settings: postemergence; for Ragweed plant response rating: 125 g ai/ha, visual injury rating on 0 to 100 scale (0 no effect, 100 complete control), approx. 10 d; for Plant response rating, Ragweed: 500 g ai/ha, 0 to 100 scale, 0 no effect, 100 complete control
Outline: as §2

[6] = system: ryegrass, Italian (Italian ryegrass, Lolium multiflorum); assay: Test A postemergence; settings: postemergence; for Ryegrass, Italian plant response rating: 125 g ai/ha, visual injury rating on 0 to 100 scale (0 no effect, 100 complete control), approx. 10 d; for Plant response rating, Ryegrass, Italian: 500 g ai/ha, 0 to 100 scale, 0 no effect, 100 complete control
Outline: as §2

[7] = system: pigweed (Amaranthus retroflexus); assay: Test A postemergence; settings: postemergence; for Pigweed plant response rating: 125 g ai/ha, visual injury rating on 0 to 100 scale (0 no effect, 100 complete control), approx. 10 d; for Plant response rating, Pigweed: 500 g ai/ha, 0 to 100 scale, 0 no effect, 100 complete control
Outline: as §2

[8] = system: wheat (Triticum aestivum); assay: Test A postemergence; settings: postemergence; for Wheat plant response rating: 125 g ai/ha, visual injury rating on 0 to 100 scale (0 no effect, 100 complete control), approx. 10 d; for Plant response rating, Wheat: 500 g ai/ha, 0 to 100 scale, 0 no effect, 100 complete control
Outline: as §2

[9] = system: giant foxtail (Setaria faberii); assay: Test A postemergence; settings: postemergence; for Foxtail, Giant plant response rating: 125 g ai/ha, visual injury rating on 0 to 100 scale (0 no effect, 100 complete control), approx. 10 d; for Plant response rating, Foxtail, Giant: 500 g ai/ha, 0 to 100 scale, 0 no effect, 100 complete control
Outline: as §2

corn (Zea mays) = assay: Test A postemergence; settings: postemergence; for Corn plant response rating: 125 g ai/ha, visual injury rating on 0 to 100 scale (0 no effect, 100 complete control), approx. 10 d; for Plant response rating, Corn: 500 g ai/ha, 0 to 100 scale, 0 no effect, 100 complete control
Outline: as §2

Kochia (Kochia scoparia) [10] = assay: Test A postemergence; settings: postemergence; for Kochia plant response rating: 125 g ai/ha, visual injury rating on 0 to 100 scale (0 no effect, 100 complete control), approx. 10 d; for Plant response rating, Kochia: 500 g ai/ha, 0 to 100 scale, 0 no effect, 100 complete control
Outline: as §2

[11] = system: Galium (catchweed bedstraw, Galium aparine); assay: Test A postemergence; settings: postemergence; for Galium plant response rating: 125 g ai/ha, visual injury rating on 0 to 100 scale (0 no effect, 100 complete control), approx. 10 d; for Plant response rating, Galium: 500 g ai/ha, 0 to 100 scale, 0 no effect, 100 complete control
Outline: as §2

[12] = system: barnyardgrass (Echinochloa crus-galli); assay: Test A postemergence; settings: postemergence; for Barnyardgrass plant response rating: 125 g ai/ha, visual injury rating on 0 to 100 scale (0 no effect, 100 complete control), approx. 10 d; for Plant response rating, Barnyardgrass: 500 g ai/ha, 0 to 100 scale, 0 no effect, 100 complete control
Outline: as §2

[13] = system: ragweed (common ragweed, Ambrosia elatior); assay: Test A preemergence; settings: for Plant response rating, Ragweed: 125 g ai/ha, preemergence, 0 to 100 scale (0 no effect, 100 complete control); for Ragweed plant response rating (0 to 100 scale, 0 is no effect, 100 is complete control): Preemergence, 500 g ai/ha, visual injury approx. 10 d
Outline: as §2

[14] = system: ryegrass, Italian (Italian ryegrass, Lolium multiflorum); assay: Test A preemergence; settings: for Plant response rating, Ryegrass, Italian: 125 g ai/ha, preemergence, 0 to 100 scale (0 no effect, 100 complete control); for Ryegrass, Italian plant response rating (0 to 100 scale, 0 is no effect, 100 is complete control): Preemergence, 500 g ai/ha, visual injury approx. 10 d
Outline: as §2

[15] = system: pigweed (Amaranthus retroflexus); assay: Test A preemergence; settings: for Plant response rating, Pigweed: 125 g ai/ha, preemergence, 0 to 100 scale (0 no effect, 100 complete control); for Pigweed plant response rating (0 to 100 scale, 0 is no effect, 100 is complete control): Preemergence, 500 g ai/ha, visual injury approx. 10 d
[16] = system: giant foxtail (Setaria faberii); assay: Test A preemergence; settings: for Plant response rating, Foxtail, Giant: 125 g ai/ha, preemergence, 0 to 100 scale (0 no effect, 100 complete control); for Foxtail, Giant plant response rating (0 to 100 scale, 0 is no effect, 100 is complete control): Preemergence, 500 g ai/ha, visual injury approx. 10 d
Outline: as §2

Kochia (Kochia scoparia) [17] = assay: Test A preemergence; settings: for Plant response rating, Kochia: 125 g ai/ha, preemergence, 0 to 100 scale (0 no effect, 100 complete control); for Kochia plant response rating (0 to 100 scale, 0 is no effect, 100 is complete control): Preemergence, 500 g ai/ha, visual injury approx. 10 d
Outline: as §2

[18] = system: barnyardgrass (Echinochloa crus-galli); assay: Test A preemergence; settings: for Plant response rating, Barnyardgrass: 125 g ai/ha, preemergence, 0 to 100 scale (0 no effect, 100 complete control); for Barnyardgrass plant response rating (0 to 100 scale, 0 is no effect, 100 is complete control): Preemergence, 500 g ai/ha, visual injury approx. 10 d
Outline: as §2

COc1c(F)ccc(NC(=O)C2C(=O)NCC2c2ccc(F)c(F)c2)c1F (stereo not drawn) [Compound 419]
90: Plant response rating, Foxtail, Giant [9] | Foxtail, Giant plant response rating (0 to 100 scale, 0 is no effect, 100 is complete control) [16] | Barnyardgrass plant response rating (0 to 100 scale, 0 is no effect, 100 is complete control) [18]
0: Plant response rating, Sedge, Umbrella [1] | Plant response rating, Rice (rice (Oryra sativa)) | Blackgrass plant response rating [4] | Plant response rating, Blackgrass [4] | Ragweed plant response rating [5] | Plant response rating, Ragweed [5] | Ryegrass, Italian plant response rating [6] | Pigweed plant response rating [7] | Plant response rating, Pigweed [7] | Wheat plant response rating [8] | Corn plant response rating (corn (Zea mays)) | Galium plant response rating [11] | Plant response rating, Galium [11] | Plant response rating, Ragweed [13] | Ragweed plant response rating (0 to 100 scale, 0 is no effect, 100 is complete control) [13] | Plant response rating, Ryegrass, Italian [14] | Ryegrass, Italian plant response rating (0 to 100 scale, 0 is no effect, 100 is complete control) [14] | Plant response rating, Pigweed [15] | Plant response rating, Kochia (Kochia (Kochia scoparia) [17]) | Kochia plant response rating (0 to 100 scale, 0 is no effect, 100 is complete control) (Kochia (Kochia scoparia) [17])
20: Plant response rating, Ryegrass, Italian [6] | Plant response rating, Wheat [8] | Foxtail, Giant plant response rating [9] | Plant response rating, Corn (corn (Zea mays)) | Kochia plant response rating (Kochia (Kochia scoparia) [10]) | Plant response rating, Kochia (Kochia (Kochia scoparia) [10]) | Pigweed plant response rating (0 to 100 scale, 0 is no effect, 100 is complete control) [15]
40: Plant response rating, Barnyardgrass [3]
60: Barnyardgrass plant response rating [12] | Plant response rating, Barnyardgrass [18]
50: Plant response rating, Ducksalad [2]
80: Plant response rating, Barnyardgrass [12] | Plant response rating, Foxtail, Giant [16]

Cc1ccc(F)c(NC(=O)C2C(=O)NCC2c2cccc(OC(F)F)c2)c1 (stereo not drawn) [Compound 423]
0: Plant response rating, Sedge, Umbrella [1] | Plant response rating, Rice (rice (Oryra sativa)) | Plant response rating, Barnyardgrass [3] | Blackgrass plant response rating [4] | Plant response rating, Blackgrass [4] | Ragweed plant response rating [5] | Plant response rating, Ragweed [5] | Ryegrass, Italian plant response rating [6] | Plant response rating, Ryegrass, Italian [6] | Pigweed plant response rating [7] | Plant response rating, Pigweed [7] | Wheat plant response rating [8] | Plant response rating, Wheat [8] | Foxtail, Giant plant response rating [9] | Plant response rating, Foxtail, Giant [9] | Corn plant response rating (corn (Zea mays)) | Plant response rating, Corn (corn (Zea mays)) | Kochia plant response rating (Kochia (Kochia scoparia) [10]) | Plant response rating, Kochia (Kochia (Kochia scoparia) [10]) | Galium plant response rating [11] | Plant response rating, Galium [11] | Barnyardgrass plant response rating [12] | Plant response rating, Barnyardgrass [12] | Plant response rating, Ragweed [13] | Ragweed plant response rating (0 to 100 scale, 0 is no effect, 100 is complete control) [13] | Plant response rating, Ryegrass, Italian [14] | Ryegrass, Italian plant response rating (0 to 100 scale, 0 is no effect, 100 is complete control) [14] | Plant response rating, Pigweed [15] | Pigweed plant response rating (0 to 100 scale, 0 is no effect, 100 is complete control) [15] | Plant response rating, Foxtail, Giant [16] | Foxtail, Giant plant response rating (0 to 100 scale, 0 is no effect, 100 is complete control) [16] | Plant response rating, Kochia (Kochia (Kochia scoparia) [17]) | Kochia plant response rating (0 to 100 scale, 0 is no effect, 100 is complete control) (Kochia (Kochia scoparia) [17]) | Plant response rating, Barnyardgrass [18] | Barnyardgrass plant response rating (0 to 100 scale, 0 is no effect, 100 is complete control) [18]
20: Plant response rating, Ducksalad [2]
